Measured values published in patent EP4692094A1 (Beijing Konruns Pharmaceutical Co., Ltd., priority 2023, dated 2024).

Tests used:
KAT6B = biological target: T1, KAT6B (Homo sapiens, UniProt Q8WYB5); assay: Enzymatic activity assay for KAT6B acetyltransferase (TR-FRET, histone substrate H3); format: biochemical; settings: KAT6B 3 nM, Bio-H3 400 nM, AcCOA 2 µM
T1 construct: purchased active motife (Active Motif) 81224
Experimental: The acetylation effects of KAT6B on histone substrate H3, as well as KAT5, KAT7, and KAT8 on histone substrate H4, were determined using the TR-FRET (time-resolved fluorescence resonance energy transfer) method. The determination was performed according to experimental procedures similar to those in "Pharmacological Experiment I": 1.2 Preparation of compounds: The compounds prepared in the examples were each dissolved in dimethylsulfoxide to give solutions at a concentration of 10 mmol/L. • 1) The compounds in the examples were each diluted from 10 mmol/L stock solution to 0.2 mmol/L, i.e., 1 µL of the compound was added to 49 µL of DMSO, and 3-fold dilution was performed to give 10 concentrations. • 2) 50 nL of the test compounds were transferred to 384 reaction plates using Echo, two replicates for each compound, and the plates were centrifuged at a rotation speed of 1000 rpm for 1 min, the final concentration of dimethylsulfoxide (DMSO) being 0.5%. […]
(§1) For KAT8: • 3) 2.5 µL of the KAT8 enzyme solution at a final concentration of 10 nM was added to the 384 reaction plates in step 2), and the plates were centrifuged at 1000 rpm for 1 min and incubated at 25 °C for 10 min. • 4) 2.5 µL of […] at a final concentration of 300 nM and an AcCOA (acetyl-CoA) reaction solution at a final concentration of 2 µM were added to the 384 reaction plates in step 3), and the plates were centrifuged at a rotation speed of 1000 rpm for 1 min and incubated at 25 °C for 90 min. • 5) 5 µL of Eu-Ab& Ulight-SA detection solution was separately added to the 384 reaction plates in step 4) of the 4 groups described above, and the plates were centrifuged at 1000 rpm for 1 min and incubated at 25 °C for 60 min. • 6) The HTRF […] signals were read using a BMG high-throughput drug-screening multi-mode microplate reader.
The acetylation levels of the histones in the groups were analyzed by the GraphPad Prism 8 software. […]

[1] = test system: human breast cancer cell line ZR-75-1; assay: Assay for cell growth inhibitory activity (3D hydrogel culture, CCK-8); format: cell-based; settings: 96 h; for viability at 0.0001 µM: ZR-75-1, 0.1 nM, read-out: Cell survival rate at example drug concentration 0.1 nM; for viability at 0.001 µM: ZR-75-1, 1 nM, read-out: Cell survival rate at example drug concentration 1 nM; for viability at 0.01 µM: ZR-75-1, 10 nM, read-out: Cell survival rate at example drug concentration 10 nM; for viability at 0.1 µM: ZR-75-1, 100 nM, read-out: Cell survival rate at example drug concentration 100 nM; for viability at 1 µM: ZR-75-1, 1000 nM, read-out: Cell survival rate at example drug concentration 1000 nM
Experimental: The human breast cancer cell line ZR-75-1 (1 × 10^^6 cells per cell culture dish with 100-mm diameter) was cultured in a 1640 culture medium, and 1% double antibiotics (streptomycin and penicillin), 10% fetal bovine serum (FBS), and 1% glutamine (Glumax) were added simultaneously. The cell culture dish was placed at 37 °C with 5% CO2 for 2 days for culture until the cell confluence reached 80%-90% to give cells in the logarithmic growth phase.
• 1) The example compounds were each dissolved in dimethylsulfoxide to give solutions at a concentration of 10 mmol/L, and the solutions were diluted to 250 µmol/L in 10-fold gradient for 5 concentrations, i.e., 0.2 nmol/L, 2 nmol/L, 20 nmol/L, 200 nmol/L, and 2000 nmol/L. • 2) Blank control wells were prepared by adding 0.1% dimethylsulfoxide to the cultured cells, and were used as high-reading control wells; cell-free 3D hydrogel was used as background wells. • 3) The cultured cells were separately added to the compounds in the examples at 0.2 nmol/L, 2 nmol/L, 20 nmol/L, 200 nmol/L, and 2000 nmol/L as test wells, with the same volumes as the original culture solutions.
• 1) The cells were collected, resuspended in a PBS balanced salt solution, and counted; and the cells were mixed with the 3D hydrogel stock solution and prepared into hydrogel cell suspensions with proper density. • 2) The 3D hydrogel cell suspension (5 × 10^^4 cells) was added to each well in 96-well cell culture plates with low surface adsorption, and the plates were incubated at 37 °C with 5% CO2 for 20 min. • 3) The complete culture medium containing the compound prepared in 1.2 with an equal volume to that of the cell suspension in step 2 was added to the 96-well cell culture plate. • 4) The cells were cultured at 37 °C in a 5% CO2 incubator for 96 h.
• 1) The complete culture medium in the upper layer above the hydrogel was pipetted from each well of the 96-well cell culture plate with a vacuum pump or a manual pipette with careful processing to avoid breaking the hydrogel lower layer. • 2) The complete culture medium containing the CCK-8 substrate with an equal volume to that of the original hydrogel was added to each well. • 3) The plate was cultured at 37 °C with 5% CO2 for 1 h. • 4) The 96-well cell culture plate was placed in a microplate reader, and the values of A450 and A630 were separately detected.
Data analysis: The relative inhibitory level was analyzed by using Excel software, and the survival rates of cells under different compound culture conditions were obtained; [formula]
High-reading control well: cells + dimethylsulfoxide; background well: cell-free hydrogel. Table 7. Cell proliferation inhibitory activity of some of example compounds

KAT7 = biological target: T2, KAT7 (Homo sapiens, UniProt O95251); assay: Enzymatic activity assay for KAT7 acetyltransferase (TR-FRET, histone substrate H4); format: biochemical; settings: KAT7 15 nM, H4 300 nM, AcCOA 2 µM
T2 construct: purchased ICE S02210F-H21HF
Experimental: The acetylation effects of KAT6B on histone substrate H3, as well as KAT5, KAT7, and KAT8 on histone substrate H4, were determined using the TR-FRET (time-resolved fluorescence resonance energy transfer) method. The determination was performed according to experimental procedures similar to those in "Pharmacological Experiment I": 1.2 Preparation of compounds: The compounds prepared in the examples were each dissolved in dimethylsulfoxide to give solutions at a concentration of 10 mmol/L. • 1) The compounds in the examples were each diluted from 10 mmol/L stock solution to 0.2 mmol/L, i.e., 1 µL of the compound was added to 49 µL of DMSO, and 3-fold dilution was performed to give 10 concentrations. • 2) 50 nL of the test compounds were transferred to 384 reaction plates using Echo, two replicates for each compound, and the plates were centrifuged at a rotation speed of 1000 rpm for 1 min, the final concentration of dimethylsulfoxide (DMSO) being 0.5%.
For KAT7: • 3) 2.5 µL of the KAT7 enzyme solution at a final concentration of 15 nM was added to the 384 reaction plates in step 2), and the plates were centrifuged at 1000 rpm for 1 min and incubated at 25 °C for 10 min. • 4) 2.5 µL of H4 at a final concentration of 300 nM and an AcCOA (acetyl-CoA) reaction solution at a final concentration of 2 µM were added to the 384 reaction plates in step 3), and the plates were centrifuged at a rotation speed of 1000 rpm for 1 min and incubated at 25 °C for 90 min.
as §1
The acetylation levels of the histones in the groups were analyzed by the GraphPad Prism 8 software. The reading of the negative control (0.5% DMSO wells) was set as 0% inhibition rate, and the reading of the positive control (wells with the highest concentration of the control compound) was set as 100% inhibition rate. The inhibition rates were calculated, and then IC50 values (half maximal inhibitory concentration) of test compounds were obtained by using a software nonlinear fitting formula; [formula]
Datapositive control: mean of positive control well values; Datanegative control: mean of negative control well values. Table 5. Enzymatic inhibitory activity of example compounds

T1 sequence (Q8WYB5 whole entry): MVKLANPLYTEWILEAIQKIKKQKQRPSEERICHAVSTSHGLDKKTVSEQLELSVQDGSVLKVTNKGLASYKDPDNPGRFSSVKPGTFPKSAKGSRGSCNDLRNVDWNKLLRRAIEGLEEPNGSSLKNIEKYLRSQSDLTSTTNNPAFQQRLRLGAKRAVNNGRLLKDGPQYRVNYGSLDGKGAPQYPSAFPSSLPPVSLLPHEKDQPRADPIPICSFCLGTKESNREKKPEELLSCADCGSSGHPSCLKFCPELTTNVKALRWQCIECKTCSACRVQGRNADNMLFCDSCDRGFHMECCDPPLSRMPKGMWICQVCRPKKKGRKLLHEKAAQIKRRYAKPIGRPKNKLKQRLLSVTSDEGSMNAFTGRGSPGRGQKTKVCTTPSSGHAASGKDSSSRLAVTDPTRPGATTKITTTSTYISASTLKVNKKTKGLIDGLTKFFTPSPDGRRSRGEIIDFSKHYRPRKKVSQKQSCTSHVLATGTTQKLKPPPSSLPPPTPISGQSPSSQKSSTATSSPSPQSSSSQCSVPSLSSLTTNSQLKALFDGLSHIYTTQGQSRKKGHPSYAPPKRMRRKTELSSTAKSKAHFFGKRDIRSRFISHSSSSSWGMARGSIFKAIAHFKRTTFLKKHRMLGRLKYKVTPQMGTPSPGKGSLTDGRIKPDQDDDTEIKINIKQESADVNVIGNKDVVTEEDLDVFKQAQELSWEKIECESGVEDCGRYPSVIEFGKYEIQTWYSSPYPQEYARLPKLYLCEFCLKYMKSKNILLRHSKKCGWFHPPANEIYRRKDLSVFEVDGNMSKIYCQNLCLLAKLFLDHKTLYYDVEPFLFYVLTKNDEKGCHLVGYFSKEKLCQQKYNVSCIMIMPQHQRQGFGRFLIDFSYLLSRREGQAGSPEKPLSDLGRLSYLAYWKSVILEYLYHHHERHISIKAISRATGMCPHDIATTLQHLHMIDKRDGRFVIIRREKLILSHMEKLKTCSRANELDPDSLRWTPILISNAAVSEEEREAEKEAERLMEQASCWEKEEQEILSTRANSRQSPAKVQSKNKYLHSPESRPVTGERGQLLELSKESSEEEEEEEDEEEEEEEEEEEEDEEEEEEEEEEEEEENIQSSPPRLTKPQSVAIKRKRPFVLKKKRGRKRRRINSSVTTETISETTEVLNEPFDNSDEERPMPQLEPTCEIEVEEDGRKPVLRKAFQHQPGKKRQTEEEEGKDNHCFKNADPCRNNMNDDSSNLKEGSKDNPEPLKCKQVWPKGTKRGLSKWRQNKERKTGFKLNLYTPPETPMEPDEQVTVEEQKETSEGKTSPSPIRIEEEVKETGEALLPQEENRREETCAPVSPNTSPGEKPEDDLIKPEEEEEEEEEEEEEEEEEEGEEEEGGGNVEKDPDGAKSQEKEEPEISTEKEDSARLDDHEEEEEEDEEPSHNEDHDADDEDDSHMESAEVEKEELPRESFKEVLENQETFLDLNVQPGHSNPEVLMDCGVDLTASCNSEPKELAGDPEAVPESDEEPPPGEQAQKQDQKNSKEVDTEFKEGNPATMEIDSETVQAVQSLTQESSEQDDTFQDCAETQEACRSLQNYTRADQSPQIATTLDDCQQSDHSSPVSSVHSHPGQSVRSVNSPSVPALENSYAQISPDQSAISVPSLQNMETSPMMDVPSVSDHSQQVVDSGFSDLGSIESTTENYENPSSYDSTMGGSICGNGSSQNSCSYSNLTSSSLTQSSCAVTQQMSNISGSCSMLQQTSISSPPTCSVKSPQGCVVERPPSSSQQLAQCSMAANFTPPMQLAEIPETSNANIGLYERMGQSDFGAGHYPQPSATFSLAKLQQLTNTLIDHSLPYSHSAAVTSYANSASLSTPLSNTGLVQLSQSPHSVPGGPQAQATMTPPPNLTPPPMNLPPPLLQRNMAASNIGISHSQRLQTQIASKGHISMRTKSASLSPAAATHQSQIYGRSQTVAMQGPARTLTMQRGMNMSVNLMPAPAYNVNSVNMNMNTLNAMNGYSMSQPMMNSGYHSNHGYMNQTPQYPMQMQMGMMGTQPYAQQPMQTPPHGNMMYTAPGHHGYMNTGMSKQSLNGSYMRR
T2 sequence (O95251 whole entry): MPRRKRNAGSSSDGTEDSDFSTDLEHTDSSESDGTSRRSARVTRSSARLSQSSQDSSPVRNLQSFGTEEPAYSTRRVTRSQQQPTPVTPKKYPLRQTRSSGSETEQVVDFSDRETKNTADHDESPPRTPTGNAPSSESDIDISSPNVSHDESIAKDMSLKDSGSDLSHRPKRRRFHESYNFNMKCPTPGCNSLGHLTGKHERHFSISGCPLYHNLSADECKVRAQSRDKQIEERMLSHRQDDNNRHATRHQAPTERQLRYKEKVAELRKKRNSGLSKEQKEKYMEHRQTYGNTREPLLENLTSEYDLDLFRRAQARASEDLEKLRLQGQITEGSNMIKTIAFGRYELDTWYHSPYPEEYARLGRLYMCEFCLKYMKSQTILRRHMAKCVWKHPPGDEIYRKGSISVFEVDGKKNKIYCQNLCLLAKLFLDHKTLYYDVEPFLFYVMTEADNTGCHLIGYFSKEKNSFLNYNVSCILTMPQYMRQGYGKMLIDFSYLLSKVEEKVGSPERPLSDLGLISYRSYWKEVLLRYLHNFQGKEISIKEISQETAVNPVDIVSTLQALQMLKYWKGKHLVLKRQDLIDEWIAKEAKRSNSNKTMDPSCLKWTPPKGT

Row | SMILES | IC50 (KAT6B) [µM] | viability at 0.0001 µM [1] [%] | viability at 0.001 µM [1] [%] | viability at 0.01 µM [1] [%] | viability at 0.1 µM [1] [%] | viability at 1 µM [1] [%] | IC50 (KAT7) [µM]
1 | COc1cc2c(cc1S(=O)(=O)Nc1noc3cc(Cn4cccn4)nc(OC)c13)CCCC2 [Example 2, N-(6-((1H-Pyrazol-1-yl)methyl)-4-methoxyisoxazolo[4,5-c]pyridin-3-yl)-3-methoxy-5,6,7,8-tetrahydronaphthalene-2-sulfonamide] | 0.00234 | 63 | 51 | 43 | 43 | 40 | 0.054
2 | COc1nc(Cn2cccn2)cc2onc(NS(=O)(=O)c3cccc4c3OCCO4)c12 [Example 4, N-(6-((1H-Pyrazol-1-yl)methyl)-4-methoxyisoxazolo[4,5-c]pyridin-3-yl)-2,3-dihydrobenzo[b][1,4]dioxine-5-sulfonamide] |  | 75 | 61 | 41 | 37 | 29 | 
3 | COc1nc(Cn2cccn2)cc2onc(NS(=O)(=O)c3cccc4ccoc34)c12 [Example 5, N-(6-((1H-Pyrazol-1-yl)methyl)-4-methoxyisoxazolo[4,5-c]pyridin-3-yl)benzofuran-7-sulfonamide] |  | 80 | 85 | 69 | 54 | 35 | 
4 | COc1ccc2c(c1S(=O)(=O)Nc1noc3cc(Cn4cccn4)nc(OC)c13)OCC2 [Example 9, N-(6-((1H-Pyrazol-1-yl)methyl)-4-methoxyisoxazolo[4,5-c]pyridin-3-yl)-6-methoxy-2,3-dihydrobenzofuran-7-sulfonamide] |  | 63 | 48 | 41 | 38 | 32 | 0.0475
5 | COc1ccc2ccoc2c1S(=O)(=O)Nc1noc2cc(Cn3cccn3)nc(OC)c12 [Example 10, N-(6-((1H-Pyrazol-1-yl)methyl)-4-methoxyisoxazolo[4,5-c]pyridin-3-yl)-6-methoxybenzofuran-7-sulfonamide] | 0.00178 | 62 | 45 | 39 | 33 | 29 | 0.00742
6 | COc1cc2c(cc1S(=O)(=O)Nc1noc3cc(Cn4cccn4)nc(OC)c13)OCC2 [Example 59, N-(6-((1H-Pyrazol-1-yl)methyl)-4-methoxyisoxazolo[4,5-c]pyridin-3-yl)-5-methoxy-2,3-dihydrobenzofuran-6-sulfonamide] | 0.0095 |  |  |  |  |  | 0.0274
7 | COc1cc2c(cc1S(=O)(=O)Nc1noc3cc(Cn4cccn4)nc(OC)c13)CCCO2 [Example 76, N-(6-((1H-Pyrazol-1-yl)methyl)-4-methoxyisoxazolo[4,5-c]pyridin-3-yl)-7-methoxy-3,4-dihydro-1H-benzopyran-6-sulfonamide] |  |  |  |  |  |  | 0.0866
